Experimental data reported in ChEMBL document CHEMBL1133908, “Novel 3-(2-adamantyl)pyrrolidines with potent activity against influenza A virus-identification of aminoadamantane derivatives bearing two pharmacophoric amine groups” (2001).
In brackets after ≈: the same amount, converted by molar mass.

Experiments:
MDCK [1] = experiment: Minimum inhibitory concentration required to reduce influenza A H2N2 virus induced cytopathogenicity by 50% in madin-Darby canine kidney cells (MDCK); format: functional; conditions: Canis lupus familiaris
MDCK [2] = experiment: Minimum inhibitory concentration required to reduce influenza A H3N2 (X31) virus induced cytopathogenicity by 50% in madin-Darby canine kidney cells (MDCK); format: functional; conditions: Canis lupus familiaris
MDCK [3] = experiment: Minimum cytotoxic concentration required to cause a microscopically detectable alteration of normal cell morphology in madin-Darby canine kidney cells (MDCK); format: functional, Canis lupus familiaris

CN(C)CCN1CCC(C2C3CC4CC(C3)CC2C4)C1=O (stereo unspecified) was tested, and the MIC50 (MDCK [1]) was 14.7 µM (≈ 4.27 µg/mL), the MIC50 (MDCK [2]) was 14.7 µM (≈ 4.27 µg/mL) and the MCC50 (MDCK [3]) was 122.4 µM.
CCN(CC)CCN1CCC(C2C3CC4CC(C3)CC2C4)C1 (stereo unspecified) showed an MIC50 (MDCK [1]) of 8.9 µM (≈ 2.71 µg/mL), an MIC50 (MDCK [2]) of over 14.9 µM and an MCC50 (MDCK [3]) of 74.5 µM.
With CCCN1CCC(C2C3CC4CC(C3)CC2C4)C1 (stereo unspecified) the MIC50 (MDCK [1]) was over 28.2 µM, the MIC50 (MDCK [2]) was over 28.2 µM and the MCC50 (MDCK [3]) was 140.9 µM.
NC12CC3CC(CC(C3)C1)C2 [AMANTADINE] gave an MIC50 (MDCK [1]) of 2.6 µM (≈ 0.393 µg/mL), an MIC50 (MDCK [2]) of 12.8 µM (≈ 1.94 µg/mL) and an MCC50 (MDCK [3]) of over 533.3 µM.
C1CC(C2C3CC4CC(C3)CC2C4)CN1 (stereo unspecified) showed an MIC50 (MDCK [1]) of 0.6 µM (≈ 0.123 µg/mL), an MIC50 (MDCK [2]) of 5 µM (≈ 1.03 µg/mL) and an MCC50 (MDCK [3]) of 124.4 µM.
NC(=O)c1ncn([C@@H]2O[C@H](CO)[C@@H](O)[C@H]2O)n1 [RIBAVIRIN] was tested, and the MIC50 (MDCK [1]) was 615 µM (≈ 150 µg/mL), the MIC50 (MDCK [2]) was 123 µM (≈ 30 µg/mL) and the MCC50 (MDCK [3]) was over 1024.6 µM.
Work on CCN1CCC(C2C3CC4CC(C3)CC2C4)C1 (stereo unspecified) yielded an MIC50 (MDCK [1]) of over 29.7 µM, an MIC50 (MDCK [2]) of over 29.7 µM and an MCC50 (MDCK [3]) of 148.2 µM.
Compound CN1CCC(C2C3CC4CC(C3)CC2C4)C1 (stereo unspecified) has an MIC50 (MDCK [1]) of 18.8 µM (≈ 4.12 µg/mL), an MIC50 (MDCK [2]) of 18.8 µM (≈ 4.12 µg/mL) and an MCC50 (MDCK [3]) of over 156.4 µM.
Compound CCN(CC)CCN1CCC(C2C3CC4CC(C3)CC2C4)C1=O (stereo unspecified) has an MIC50 (MDCK [1]) of 11.1 µM (≈ 3.54 µg/mL), an MIC50 (MDCK [2]) of 11.1 µM (≈ 3.54 µg/mL) and an MCC50 (MDCK [3]) of 92 µM.
C1CCN(CCN2CCC(C3C4CC5CC(C4)CC3C5)C2)CC1 (stereo unspecified) was tested, and the MIC50 (MDCK [1]) was 1.7 µM (≈ 0.538 µg/mL), the MIC50 (MDCK [2]) was 0.35 µM (≈ 0.111 µg/mL) and the MCC50 (MDCK [3]) was 14.6 µM.
CN(C)CCN1CCC(C2C3CC4CC(C3)CC2C4)C1 (stereo unspecified) showed an MIC50 (MDCK [1]) of 0.38 µM (≈ 0.105 µg/mL), an MIC50 (MDCK [2]) of 9.4 µM (≈ 2.6 µg/mL) and an MCC50 (MDCK [3]) of 78.7 µM.
With CCCCN1CCC(C2C3CC4CC(C3)CC2C4)C1 (stereo unspecified) the MIC50 (MDCK [1]) was over 26.9 µM, the MIC50 (MDCK [2]) was over 26.9 µM and the MCC50 (MDCK [3]) was 134.3 µM.
